Usually inhibition stands for the change of the read-out against control, counted positive when it falls.

Molecules are shown by their SMILES.

One test deals with IL-1β release from THP-1 cells. The test is described as follows: IL-1β Release Assay (Alternate Method), THP-1 cells. The test is classed as cell-based, human. To be noted: Homo sapiens, THP-1, read-out: IL-1β % inhibition. The method, boiled down: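 IL-1β release, measured by ELISA, follows 45 min BzATP (250 uM final) stimulation of THP-1 cells given 30 min compound pretreatment. Cells were first primed 16 h with LPS and IFN-γ (100 ng/mL each), then 2 h with fresh LPS; inhibition expressed in percent after background correction.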
On to `O=C(CC12CC3CC(CC(C3)C1)C2)Nc1ncnc2c1CCN(CC(O)CO)C2` (stereo not shown) [Compound 23, 2-Adamantan-1-yl-N-[7-(2,3-dihydroxy-propyl)-5,6,7,8-tetrahydro-pyrido[3,4-d]pyrimidin-4-yl]-acetamide], for which the inhibition at 0.3 µM lay in the range of 0 to 25%.

The test is the same for the next values; noted with them: at 0.3 μM; THP-1 cells.
Consider `CC12CC3CC(C)(C1)CC(CC(=O)Nc1ncnc4c1CCN(C(=O)CC1CCCC1)C4)(C3)C2` [Compound 384], for which the IL-1β % inhibition result was “++ (compound exhibited 25-50% inhibition at 0.3 μM)”. Same read-out and setting: as for `CC(C)(C)CC(=O)N1CCc2c(ncnc2NC(=O)CC23CC4CC(CC(C4)C2)C3)C1` [Compound 262], the entry is “+ (compound exhibited 0-25% inhibition at 0.3 μM)”; as for `O=C(CC12CC3CC(CC(C3)C1)C2)Nc1ncnc2c1CCN(C(=O)c1cccnc1Oc1ccccc1)C2` [Compound 274], “+ (compound exhibited 0-25% inhibition at 0.3 μM)”. Still for that read-out and setting: as for `COc1ccccc1CCC(=O)Nc1ncnc2c1CCN(CC1CCCCC1)C2` [Compound 136], the entry is “+ (compound exhibited 0-25% inhibition at 0.3 μM)”; as for `O=C(CC12CC3CC(CC(C3)C1)C2)Nc1ncnc2c1CCN(CC1CCCCC1)C2` [Compound 122], “+ (compound exhibited 0-25% inhibition at 0.3 μM)”; as for `CC1(C)CCCC(O)(CNC(=O)c2ncnc3c2CCN(Cc2ccccc2)C3)C1` (stereo not shown) [Compound 59], “+ (compound exhibited 0-25% inhibition at 0.3 μM)”.

For `O=C(NCC1CCCCC1)c1ncnc2c1CCN(Cc1ccccc1Cl)C2` [Compound 50], the IL-1β % inhibition result is listed as “+ (compound exhibited 0-25% inhibition at 0.3 μM)”. The same measure, in the same setting: as for `Cc1cc(C(=O)N2CCc3c(ncnc3NC(=O)CC34CC5CC(CC(C5)C3)C4)C2)n(C)n1` [Compound 285], the entry is “+ (compound exhibited 0-25% inhibition at 0.3 μM)”; as for `O=C(CC12CC3CC(CC(C3)C1)C2)Nc1ncnc2c1CCN(C(=O)c1ccc(Cl)cc1Cl)C2` [Compound 258], “++++ (compound exhibited 75% or greater inhibition at 0.3 μM)”. The same measure, in the same setting: under `O=C(CC12CC3CC(CC(C3)C1)C2)Nc1ncnc2c1CCN(Cc1ccc(-c3ccccc3)s1)C2` [Compound 79] stands “+ (compound exhibited 0-25% inhibition at 0.3 μM)”.

Staying with this test, now noted: at 0.3 μM; THP-1 cells, BzATP-stimulated.
Take `O=C(Nc1ncnc2c1CCN(S(=O)(=O)c1ccc3c(c1)OCCO3)C2)C12CC3CC(CC(C3)C1)C2` [Compound 534]: the IL-1β % inhibition entry is listed as “+++ (compound exhibited 50-75% inhibition at 0.3 μM)”.

As for `COc1ccc(F)c(CN2CCc3c(ncnc3NC(=O)C34CC5CC(CC(C5)C3)C4)C2)c1` [Compound 628], the IL-1β % inhibition result is on record as “+ (compound exhibited 0-25% inhibition at 0.3 μM)”. The same measure, in the same setting: under `CN1CCOc2cc(S(=O)(=O)N3CCc4c(ncnc4NC(=O)C45CC6CC(CC(C6)C4)C5)C3)ccc21` [Compound 494] stands “+++ (compound exhibited 50-75% inhibition at 0.3 μM)”. On the same count and under the same terms, as for `O=C(Nc1ncnc2c1CCN(Cc1ccc3ccccc3c1)C2)C12CC3CC(CC(C3)C1)C2` [Compound 565], the entry is “++++ (compound exhibited 75% or greater inhibition at 0.3 μM)”; as for `O=C(c1ccno1)N1CCc2c(ncnc2NC(=O)C23CC4CC(CC(C4)C2)C3)C1` [Compound 466], “+ (compound exhibited 0-25% inhibition at 0.3 μM)”. Take `O=C(Nc1ncnc2c1CCN(Cc1ccc(OC(F)F)cc1)C2)C12CC3CC(CC(C3)C1)C2` [Compound 621]: the IL-1β % inhibition entry is given as “+++ (compound exhibited 50-75% inhibition at 0.3 μM)”. `O=C(Nc1ncnc2c1CCN(Cc1cccc(OC(F)(F)F)c1)C2)C12CC3CC(CC(C3)C1)C2` [Compound 632]: the IL-1β % inhibition result is on record as “++ (compound exhibited 25-50% inhibition at 0.3 μM)”.

For `COc1cc(CN2CCc3c(ncnc3NC(=O)C34CC5CC(CC(C5)C3)C4)C2)cc(Br)c1OC` [Compound 594], the IL-1β % inhibition result was “+ (compound exhibited 0-25% inhibition at 0.3 μM)”.
